According to patent US9908868B2, “Isoindolinone compounds as GPR119 modulators for the treatment of diabetes, obesity, dyslipidemia and related disorders” (SANOFI, priority 2014, dated 2018):

Target: T1, human GPR119 (Homo sapiens, UniProt Q8TDV5)
T1 construct: expressed in transfected cells
T1 sequence (Q8TDV5 1-335): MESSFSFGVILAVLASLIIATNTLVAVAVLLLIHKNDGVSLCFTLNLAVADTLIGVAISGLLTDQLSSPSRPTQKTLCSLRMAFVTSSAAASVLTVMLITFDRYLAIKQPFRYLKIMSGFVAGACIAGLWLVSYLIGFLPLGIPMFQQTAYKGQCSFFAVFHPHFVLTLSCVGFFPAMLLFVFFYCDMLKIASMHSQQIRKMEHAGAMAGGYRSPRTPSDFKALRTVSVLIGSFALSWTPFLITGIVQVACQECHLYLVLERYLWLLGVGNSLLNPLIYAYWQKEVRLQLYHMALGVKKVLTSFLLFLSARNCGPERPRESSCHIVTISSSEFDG
Assay: Functional cellular assay measuring GPR119-mediated cAMP release (HTRF) in HEK-293 cells stably expressing recombinant human GPR119
Type: cell-based
Conditions: cAMP response, cell line expressing human GPR119, 30 minutes at room temperature
Protocol: Functional Cellular Assays Measuring GPR119-Mediated cAMP Release
Compounds of the invention, which are agonists of GPR119, were characterized by functional assays measuring the cAMP response of HEK-293 cell lines stably expressing recombinant GPR119 from man, mouse or rat, or by using a hamster cell line HIT-T15 expressing GPR119 endogenously. The cAMP content was determined using a kit based on homogenous time-resolved fluorescence (HTRF) from Cisbio Corp. (cat. no. 62AM4PEC). For preparation, cells were split into T175 culture flasks and grown to near confluency in medium (DMEM/10% FCS for HEK-293 cells, and F-12K medium/10% horse serum/2.5% FCS for HIT-T15 cells, respectively). Medium was then removed and cells washed with PBS lacking calcium and magnesium ions, followed by proteinase treatment with accutase (Sigma-Aldrich, cat. no. A6964). Detached cells were washed and resuspended in assay buffer (1×HBSS; 20 mM HEPES, 0.1% BSA, 2 mM IBMX) and cellular density determined. They were then diluted to 400000 cells/mL and 25 μL-aliquots dispensed to the wells of 96-well plates. For measurement, 25 μL of test compound in assay buffer was added and incubated for 30 minutes at room temperature. After addition of HTRF reagents diluted in lysis buffer, the plates were incubated for 1 hour, followed by measuring the fluorescence ratio at 665 vs. 620 nm. Potency of the agonists was quantified by determining the concentrations that caused 50% of the maximal response/activation (EC50). See Table 7 for exemplary data obtained using the cell line expressing human GPR119.

Row | Structure (SMILES) | EC50 [nM]
1 | CN(C)C(=O)CN1Cc2ccc(N3CC[C@@H](Oc4ccc(C(=O)C5(C)CC5)nc4)C3=O)cc2C1=O [Example 2-59, N,N-dimethyl-2-[6-[(3R)-3-[[6-(1-methylcyclopropanecarbonyl)-3-pyridyl]oxy]-2-oxo-pyrrolidin-1-yl]-1-oxo-isoindolin-2-yl]acetamide] | 330
2 | CN(C)C(=O)CN1Cc2ccc(N3CC[C@@H](Oc4ccc(-n5cnnn5)cc4)C3=O)cc2C1=O [Example 2-44, N,N-dimethyl-2-[1-oxo-6-[(3R)-2-oxo-3-[4-(tetrazol-1-yl)phenoxy]pyrrolidin-1-yl]isoindolin-2-yl]acetamide] | 14700
3 | CN(C)C(=O)CN1Cc2ccc(N3CC[C@@H](Oc4ccc(S(F)(F)(F)(F)F)cc4)C3=O)cc2C1=O [Example 2-27, N,N-dimethyl-2-[1-oxo-6-[(3R)-2-oxo-3-[4-(pentafluoro-λ{6}-sulfanyl)phenoxy]pyrrolidin-1-yl]isoindolin-2-yl]acetamide] | 160
4 | CN(C)C(=O)CN1Cc2ccc(N3CC[C@@H](Oc4ccc(N5CCCC5=O)cc4)C3=O)cc2C1=O [Example 2-28, N,N-dimethyl-2-[1-oxo-6-[(3R)-2-oxo-3-[4-(2-oxopyrrolidin-1-yl)phenoxy]pyrrolidin-1-yl]isoindolin-2-yl]acetamide] | 1470
5 | CC(=O)N1CCN(c2ccc(O[C@@H]3CCN(c4ccc5c(c4)C(=O)N(CC(=O)N(C)C)C5)C3=O)cc2)CC1 [Example 2-26, 2-[6-[(3R)-3-[4-(4-acetylpiperazin-1-yl)phenoxy]-2-oxo-pyrrolidin-1-yl]-1-oxo-isoindolin-2-yl]-N,N-dimethyl-acetamide] | 1060
6 | CN(C)C(=O)CN1Cc2ccc(N3CC[C@@H](Oc4ccc(Oc5ccc(F)cc5)nc4)C3=O)cc2C1=O [Example 2-14, 2-[6-[(3R)-3-[[6-(4-fluorophenoxy)-3-pyridyl]oxy]-2-oxo-pyrrolidin-1-yl]-1-oxo-isoindolin-2-yl]-N,N-dimethyl-acetamide] | 85
7 | Cc1cnc(-c2ccc(O[C@@H]3CCN(c4ccc5c(c4)C(=O)N(CC(=O)N(C)C)C5)C3=O)cn2)s1 [Example 2-60, N,N-dimethyl-2-[6-[(3R)-3-[[6-(5-methylthiazol-2-yl)-3-pyridyl]oxy]-2-oxo-pyrrolidin-1-yl]-1-oxo-isoindolin-2-yl]acetamide] | 97
8 | CN(C)C(=O)CN1Cc2ccc(N3CC[C@@H](Oc4ccc(-n5cncn5)cc4)C3=O)cc2C1=O [Example 2-25, N,N-dimethyl-2-[1-oxo-6-[(3R)-2-oxo-3-[4-(1,2,4-triazol-1-yl)phenoxy]pyrrolidin-1-yl]isoindolin-2-yl]acetamide] | 12000
9 | CN(C)C(=O)CN1Cc2ccc(N3CC[C@@H](Oc4ccc(C(=O)CCC5CC5)nc4)C3=O)cc2C1=O [Example 2-57, 2-[6-[(3R)-3-[[6-(3-cyclopropylpropanoyl)-3-pyridyl]oxy]-2-oxo-pyrrolidin-1-yl]-1-oxo-isoindolin-2-yl]-N,N-dimethyl-acetamide] | 50
10 | NC(=O)CN1Cc2ccc(N3CC[C@@H](Oc4ccc(C(=O)c5ccc(F)cc5)cc4)C3=O)cc2C1=O [Example 2-50, 2-[6-[(3R)-3-[4-(4-fluorobenzoyl)phenoxy]-2-oxo-pyrrolidin-1-yl]-1-oxo-isoindolin-2-yl]acetamide] | 102
11 | CN(C)C(=O)CN1Cc2ccc(N3CC[C@@H](Oc4ccc(C(=O)C5CC5)c(F)c4)C3=O)cc2C1=O [Example 2-62, 2-[6-[(3R)-3-[4-(cyclopropanecarbonyl)-3-fluoro-phenoxy]-2-oxo-pyrrolidin-1-yl]-1-oxo-isoindolin-2-yl]-N,N-dimethyl-acetamide] | 59
12 | CN(C)C(=O)CN1Cc2ccc(N3CC[C@@H](Oc4ccc(SC5CC5)nc4)C3=O)cc2C1=O [Example 2-20, 2-[6-[(3R)-3-[(6-cyclopropylsulfanyl-3-pyridyl)oxy]-2-oxo-pyrrolidin-1-yl]-1-oxo-isoindolin-2-yl]-N,N-dimethyl-acetamide] | 233
13 | CN(C)C(=O)CN1Cc2ccc(N3CC[C@@H](Oc4ccc(SCC5CC5)nc4)C3=O)cc2C1=O [Example 2-19, 2-[6-[(3R)-3-[[6-(cyclopropylmethylsulfanyl)-3-pyridyl]oxy]-2-oxo-pyrrolidin-1-yl]-1-oxo-isoindolin-2-yl]-N,N-dimethyl-acetamide] | 47
14 | COC(=O)CN1Cc2ccc(N3CC[C@@H](Oc4ccc(OCCC5CC5)nc4)C3=O)cc2C1=O [Example 1-32, methyl 2-[6-[(3R)-3-[[6-(2-cyclopropylethoxy)-3-pyridyl]oxy]-2-oxo-pyrrolidin-1-yl]-1-oxo-isoindolin-2-yl]acetate] | 63
15 | CN(C)C(=O)CN1Cc2ccc(N3CC[C@H](Oc4ccc(OCC5CC5)nc4)C3=O)cc2C1=O [Example 1-25, 2-[6-[(3S)-3-[[6-(cyclopropylmethoxy)-3-pyridyl]oxy]-2-oxo-pyrrolidin-1-yl]-1-oxo-isoindolin-2-yl]-N,N-dimethyl-acetamide] | 441
16 | CN(C)C(=O)CN1Cc2ncc(N3CC[C@@H](Oc4ccc(OCC5CC5)nc4)C3=O)cc2C1=O [Example 1-11, 2-[3-[(3R)-3-[[6-(cyclopropylmethoxy)-3-pyridyl]oxy]-2-oxo-pyrrolidin-1-yl]-5-oxo-7H-pyrrolo[3,4-b]pyridin-6-yl]-N,N-dimethyl-acetamide] | 202
17 | C[S+]([O-])CN1Cc2ccc(N3CC[C@@H](Oc4ccc(Oc5ccc(F)cc5)nc4)C3=O)cc2C1=O (stereo partly drawn) [Example 1-50, 6-[(3R)-3-[[6-(4-fluorophenoxy)-3-pyridyl]oxy]-2-oxo-pyrrolidin-1-yl]-2-(methylsulfinylmethyl)isoindolin-1-one] | 64
18 | CN(C)C(=O)CN1Cc2ccc(N3CC[C@@H](Oc4ccc(-c5ncc(F)s5)cc4)C3=O)cc2C1=O [Example 2-64, 2-[6-[(3R)-3-[4-(5-fluorothiazol-2-yl)phenoxy]-2-oxo-pyrrolidin-1-yl]-1-oxo-isoindolin-2-yl]-N,N-dimethyl-acetamide] | 38
19 | Cc1csc(-c2ccc(O[C@@H]3CCN(c4ccc5c(c4)C(=O)N(CC(=O)N(C)C)C5)C3=O)cc2)n1 [Example 2-31, N,N-dimethyl-2-[6-[(3R)-3-[4-(4-methylthiazol-2-yl)phenoxy]-2-oxo-pyrrolidin-1-yl]-1-oxo-isoindolin-2-yl]acetamide] | 343

The remaining lines, values ahead:

Row | EC50 [nM] | Structure (SMILES)
20 | 106 | O=C(CN1Cc2ccc(N3CC[C@@H](Oc4ccc(OCC5CC5)nc4)C3=O)cc2C1=O)N1CCCC1 [Example 4-01, 6-[(3R)-3-[[6-(cyclopropylmethoxy)-3-pyridyl]oxy]-2-oxo-pyrrolidin-1-yl]-2-(2-oxo-2-pyrrolidin-1-yl-ethyl)isoindolin-1-one]
21 | 266 | O=C(CN1Cc2c(F)cc(N3CC[C@@H](Oc4ccc(OCC5CC5)nc4)C3=O)cc2C1=O)NCCO [Example 4-24, 2-[6-[(3R)-3-[[6-(cyclopropylmethoxy)-3-pyridyl]oxy]-2-oxo-pyrrolidin-1-yl]-4-fluoro-1-oxo-isoindolin-2-yl]-N-(2-hydroxyethyl)acetamide]
22 | 39 | O=C(CN1Cc2ccc(N3CC[C@@H](Oc4ccc(OCC(F)(F)F)nc4)C3=O)cc2C1=O)N1CCC1 [Example 4-42, 2-[2-(azetidin-1-yl)-2-oxo-ethyl]-6-[(3R)-2-oxo-3-[[6-(2,2,2-trifluoroethoxy)-3-pyridyl]oxy]pyrrolidin-1-yl]isoindolin-1-one]
23 | 232 | CC(C)NC(=O)CN1Cc2ccc(N3CC[C@@H](Oc4ccc(OCC(F)(F)F)nc4)C3=O)cc2C1=O [Example 4-37, N-isopropyl-2-[1-oxo-6-[(3R)-2-oxo-3-[[6-(2,2,2-trifluoroethoxy)-3-pyridyl]oxy]pyrrolidin-1-yl]isoindolin-2-yl]acetamide]
24 | 807 | O=C(O)CNC(=O)CN1Cc2ccc(N3CC[C@@H](Oc4ccc(OCC5CC5)nc4)C3=O)cc2C1=O [Example 3-04, 2-[[2-[6-[(3R)-3-[[6-(cyclopropylmethoxy)-3-pyridyl]oxy]-2-oxo-pyrrolidin-1-yl]-1-oxo-isoindolin-2-yl]acetyl]amino]acetic acid]
25 | 87 | O=C(O)CN1Cc2c(F)cc(N3CC[C@@H](Oc4ccc(OCCC5CC5)nc4)C3=O)cc2C1=O [Example 3-03, 2-[6-[(3R)-3-[[6-(2-cyclopropylethoxy)-3-pyridyl]oxy]-2-oxo-pyrrolidin-1-yl]-4-fluoro-1-oxo-isoindolin-2-yl]acetic acid]
26 | 43 | O=C(CN1Cc2ccc(N3CC[C@@H](Oc4ccc(OCC(F)(F)F)nc4)C3=O)cc2C1=O)N1CCCC1 [Example 4-40, 2-(2-oxo-2-pyrrolidin-1-yl-ethyl)-6-[(3R)-2-oxo-3-[[6-(2,2,2-trifluoroethoxy)-3-pyridyl]oxy]pyrrolidin-1-yl]isoindolin-1-one]
